Measurements reported in article PMC7575509, “Phase I study of DFP-11207, a novel oral fluoropyrimidine with reasonable AUC and low Cmax and improved tolerability, in patients with solid tumors” (Investigational New Drugs, 2020).
“Also recorded” adds a separate entry of the source.

Tests used:
[1] = Plasma pharmacokinetics, Phase I Study (LC-MS/MS of DFP-11207 metabolites); details: for AUC(0-t) / Cmax / Tmax / concentration at 2 day (Cycle 1): human, po
[2] = Plasma pharmacokinetics, Food Effect Study (fed vs fasted); details: for detectability in plasma during fed and fasted dosing: 6 patients
[3] = Urine pharmacokinetics, Phase I Study; assay type: in vivo, human (patients); details: Cycle 1, 0–48 hours after the DFP-11207 dose of 330 mg/m^2/day
[4] = ref 18 (capecitabine), 19 (UFT), 20 (S-1); cited from earlier work

5-FU Cmax at steady state ([1]; DFP-11207 330 mg/m^2/day orally every 12 hours) [ng/mL]	AUC(0-t) ([1]; plasma, 330 mg/m2) [ng·h/mL]	Cmax ([1]; plasma, 330 mg/m2) [ng/mL]	Tmax ([1]; plasma, 330 mg/m2) [h]	concentration at 2 day (Cycle 1) ([1]; plasma, 330 mg/m^2/day) [ng/mL]	Cmax ([1]; plasma, 440 mg/m2) [ng/mL]	Tmax ([1]; plasma, 440 mg/m2) [h]	concentration at 2 day (Cycle 1) ([1]; plasma, 440 mg/m^2/day) [ng/mL]	blood concentrations maintained throughout the dose cycle ([1]; oral DFP-11207 at 330 and 440 mg/m^2/day)	AUClast, Mean (SD) ([1]; plasma, Day 1, oral DFP-11207 440 mg/m^2)	urinary excretion [3] [%]	AUC(0-t) ([1]; plasma, 440 mg/m2) [ng·h/mL]	detectability in plasma during fed and fasted dosing ([2]; DFP-11207 300 mg twice daily)	difference in plasma levels (Cmax or AUClast) between fasted and fed conditions ([2]; DFP-11207 300 mg twice daily, patients serving as their own controls)	SMILES	difference in plasma levels (Cmax or AUClast) between fasted and fed conditions ([2]; in vivo)	primary dose-limiting toxicity [4]
< 25	220	9.65	24	4.01 to 25.5	8.75	12	3.39 to 13	approximately 20 ng/mL	3; 311 (214) ng·h/mL	0.12	–	–	–	O=c1[nH]cc(F)c(=O)[nH]1 [5-FU, 5-fluorouracil, reference compound]	no influence; also recorded: no clear differences	–
–	39900	1310	48	559 to 1380	1400	24	948 to 1770	–	–	0.71	49400	detectable in plasma at all time points	–	CCOCn1cc(F)c(=O)[nH]c1=O [EM-FU, 1-ethoxymethyl-5-fluorouracil]	–	–

The next lines start with the compound.

SMILES	5-FU Cmax at steady state ([1]; DFP-11207 330 mg/m^2/day orally every 12 hours) [ng/mL]	AUC(0-t) ([1]; plasma, 330 mg/m2) [ng·h/mL]	Cmax ([1]; plasma, 330 mg/m2) [ng/mL]	Tmax ([1]; plasma, 330 mg/m2) [h]	concentration at 2 day (Cycle 1) ([1]; plasma, 330 mg/m^2/day) [ng/mL]	Cmax ([1]; plasma, 440 mg/m2) [ng/mL]	Tmax ([1]; plasma, 440 mg/m2) [h]	concentration at 2 day (Cycle 1) ([1]; plasma, 440 mg/m^2/day) [ng/mL]	blood concentrations maintained throughout the dose cycle ([1]; oral DFP-11207 at 330 and 440 mg/m^2/day)	AUClast, Mean (SD) ([1]; plasma, Day 1, oral DFP-11207 440 mg/m^2)	urinary excretion [3] [%]	AUC(0-t) ([1]; plasma, 440 mg/m2) [ng·h/mL]	detectability in plasma during fed and fasted dosing ([2]; DFP-11207 300 mg twice daily)	difference in plasma levels (Cmax or AUClast) between fasted and fed conditions ([2]; DFP-11207 300 mg twice daily, patients serving as their own controls)	difference in plasma levels (Cmax or AUClast) between fasted and fed conditions ([2]; in vivo)	primary dose-limiting toxicity [4]
Oc1cc(O)c(Cl)cn1 [CDHP, 5-chloro-2,4-dihydroxypyridine]	–	2410	90.4	24	–	93.6	26	–	–	–	1.98	2810	detectable in plasma at all time points	–	–	–
O=C(O)c1cc(O)nc(O)c1 [CTA, citrazinic acid]	–	254	9.81	8	–	9.72	4	–	–	–	0.07	388	–	no clear differences	–	–
CCCCCOC(=O)Nc1nc(=O)n([C@@H]2O[C@H](C)[C@@H](O)[C@H]2O)cc1F [capecitabine]	–	–	–	–	–	–	–	–	–	–	–	–	–	–	–	hand-foot syndrome
